According to publication PMC5618334, “Hydrocarbon constrained peptides – understanding preorganisation and binding affinity” (Chemical Science, 2016):
Where a SMILES comes first, the peptide text is derived from it. [ ]: non-standard residue; d: D form. Nle = CCCC[C@H](N)C(=O)O

Assays:
Type in all cases: binding
Bcl-xL = target: T1, Bcl-xL (Homo sapiens, UniProt Q07817, DEL26-81); assay: Surface plasmon resonance (SPR), peptides flowed over immobilised His-SUMO Bcl-xL; conditions: SPR Biacore 3000, His-SUMO Bcl-xL on Ni-NTA chip, PBS with 0.01 mg/mL BSA, 0.1% Tween 20, 1:1 model, average of at least 3 data sets; for Kd: read-out: Bcl-xL K d; for koff: read-out: Bcl-xL k off; for kon: read-out: Bcl-xL k on
T1 construct: pET28a His-SUMO Bcl-xL (1-198, missing 26-81); made in house; host or cells: E. coli Rosetta 2
T1 sequence (Q07817 with tags, fused parts or gaps DEL26-81): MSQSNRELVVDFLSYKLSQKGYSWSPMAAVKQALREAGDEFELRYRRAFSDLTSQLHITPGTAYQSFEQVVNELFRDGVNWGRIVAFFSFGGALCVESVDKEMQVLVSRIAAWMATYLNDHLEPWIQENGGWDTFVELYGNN
Description: To investigate how the hydrocarbon constraint affects binding kinetics, we established a surface plasmon resonance (SPR) based assay. […] BID-WT and BID-MM were then flowed over the immobilised protein. […] These experiments were repeated for the BIM series of peptides.
SPR of BIM series of peptides
The binding kinetics and affinities were analysed by SPR (Biacore 3000). […]
immobilised on an Ni-NTA chip non-covalently in PBS with 0.01mg/ML BSA and 0.1% Tween 20 […]
(Running buffer). […] For the […]
the peptides were diluted into running buffer. Experiments were run at 40ul/min in running buffer.
20 minute dissociation period. The binding kinetic parameters were evaluated with BIA-Evaluation software (BIAcore 3000) in which all data sets were fit to a simple 1:1 (Langmuir) binding model. […]
(1 picture or pasted object on this page, not shown here)

Bcl-xL/BODIPY-BAK = target: T2, Bcl-xL/BODIPY-BAK (Homo sapiens, UniProt Q07817, DEL26-81); assay: Fluorescence anisotropy competition assay, inhibition of Bcl-xL/BODIPY-BAK interaction
T2 construct: pET28a His-SUMO Bcl-xL (1-198, missing 26-81); His-SUMO (N, cleaved yes); made in house; host or cells: E. coli Rosetta 2
T2 sequence (Q07817 with tags, fused parts or gaps DEL26-81): as above
Description: (§1) To profile the binding behaviour of the constrained peptides we tested them in both competition displacement assays and direct binding assays. […] Of particular interest was the potential for the introduction of a constraint to have differential effects on protein specificity/selectivity. […] We next tested the constrained peptides in inhibition assays (Fig. 3a and b and Table 2). […]
(§2) constructs were over-expressed in the E. coli strain Rosetta 2. Cells were resuspended in 50mM TRIS pH 8.0, 500mM NaCl, 15mM Imidazole and lysed by sonication. The clarified lysate was applied to a 5ml HisTrap column equilibrated with 50mM TRIS pH 8.0, 500mM NaCl, 15mM Imidazole. The HisTrap was then washed with 10 CV of 50mM TRIS pH 8.0, 500mM NaCl, 15mM Imidazole followed by 10 CV 50mM TRIS pH 8.0, 500mM NaCl, 25mM Imidazole. The fusion proteins were eluted in 50mM TRIS pH 8.0, 500mM NaCl, 300mM Imidazole. TheHis-SUMO tag was removed in overnight in dialysis into 50mM TRIS pH 8.0, 250mM NaCl in the presence of Smt3 protease, Ulp1, overnight at 4°C. Uncleaved material and His-SUMO were removed by reapplication of the sample to a HisTrap in 50mM TRIS pH 8.0, 250mM NaCl and the flow through containing Mcl- […]
(§3) The proteins were then filtered before further purification on a Superdex 75 (GE […]
(§4) proteins were concentrated and stored at -80°C.
(§5) The assays were performed as detailed in 10, 11.
(§6) The buffers used for fluorescence anisotropy were either phosphate buffer (40 mM sodium phosphate, 200 mM sodium chloride, 0.02 mg ml-1 bovine serum albumin, pH 7.50) or Tris buffer (50 mM Tris, 140 mM sodium chloride, pH 7.50). Phosphate buffer was used for all competition assays […]
(§7) Assays were run in 96 or 384 well Optiplates and were scanned using a Perkin Elmer EnVisionTM 2103 MultiLabel plate reader. Fluorescein labelled peptides used an excitation and emission wavelength of 480 (30) nm and 535 (40) nm respectively (dichroic mirror 505 nm) whilst BODIPY labelled peptides used an excitation and emission wavelength of 531 (25) nm and 595 (60) nm respectively (dichroic mirror 555 nm), […]
(§8) Plates were read after 1 h […]
(§9) respectively. Plates were read after 1 h. […]
(§10) Processing of fluorescence anisotropy data
(§11) Fluorescence anisotropy data was processed using Microsoft Excel to calculate intensity, anisotropy […]
(§12) b (λ(rmax − r) + r − rmin) r = anisotropy, I = total intensity, P = perpendicular intensity, S = parallel intensity, Lb = fraction ligand bound, λ = Ibound/Iunbound , G = 1= instrumental factor. […]
(§13) the calculation of IC50 and EC50) or to the Kd model for the extraction of Kd values:
(§14) Where for the logisitic model; y = r = anisotropy, xo = mid-point of the curve between the rmax and rmin […]
(§15) For the Kd model; y = Lb*[FL], K = Kd, [FL] = Concentration of fluorescent ligand.

Mcl-1/FITC-NOXA-B = target: T3, Mcl-1/FITC-NOXA-B (Homo sapiens, UniProt Q07820); assay: Fluorescence anisotropy competition assay, inhibition of Mcl-1/FITC-NOXA-B interaction
T3 construct: His-SUMO (N, cleaved yes); made in house; host or cells: E. coli Rosetta 2
T3 sequence (Q07820 172-327): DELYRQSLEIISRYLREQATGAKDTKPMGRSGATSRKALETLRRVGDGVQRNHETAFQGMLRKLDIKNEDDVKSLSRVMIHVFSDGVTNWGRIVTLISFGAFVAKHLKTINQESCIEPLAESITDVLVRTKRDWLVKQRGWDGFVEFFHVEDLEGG
Description: as §1, §2, §3, §4, §5, §6, §7, §8, §9, §10, §11, §12, §13, §14, §15

Kd (Bcl-xL) [nM] | koff (Bcl-xL) [s⁻¹] | kon (Bcl-xL) [M⁻¹ s⁻¹] | IC50 (Bcl-xL/BODIPY-BAK) [nM] | IC50 (Mcl-1/FITC-NOXA-B) [nM] | SMILES
57 ± 16 | 0.01 | 180000 | 1440 ± 50 | 390 ± 80 | CCCC[C@H](NC(=O)[C@H](CO)NC(=O)[C@H](CC(=O)O)NC(=O)CNC(=O)[C@@H](NC(=O)[C@H](CCC(N)=O)NC(=O)[C@H](C)NC(=O)[C@H](CC(C)C)NC(=O)[C@H](Cc1c[nH]cn1)NC(=O)[C@H](CCCNC(=N)N)NC(=O)[C@H](C)NC(=O)[C@@H](NC(=O)[C@H](CC(N)=O)NC(=O)[C@H](CCCNC(=N)N)NC(=O)[C@@H](NC(=O)[C@@H](NC(=O)[C@H](CC(=O)O)NC(=O)[C@H](CCC(=O)O)NC(C)=O)[C@@H](C)CC)[C@@H](C)CC)[C@@H](C)CC)C(C)C)C(=O)N[C@@H](CC(=O)O)C(=O)N[C@@H](CCCNC(=N)N)C(=O)N[C@@H](CO)C(=O)N[C@H](C(=O)N[C@@H](Cc1c[nH]c2ccccc12)C(N)=O)[C@@H](C)CC [BID-WT, reference compound] (Ac-EDIIRNIARHLAQVGDS[Nle]DRSIW-NH2)
178 ± 52 | 0.003 | 17500 | 1140 ± 40 | 800 ± 70 | CCCC[C@H](NC(=O)[C@]1(C)CCCC=CCCC[C@](C)(NC(=O)[C@H](C)NC(=O)[C@H](CC(C)C)NC(=O)[C@H](Cc2c[nH]cn2)NC(=O)[C@H](CCCNC(=N)N)NC(=O)[C@H](C)NC(=O)[C@@H](NC(=O)[C@H](CC(N)=O)NC(=O)[C@H](CCCNC(=N)N)NC(=O)[C@@H](NC(=O)[C@@H](NC(=O)[C@H](CC(=O)O)NC(=O)[C@H](CCC(=O)O)NC(C)=O)[C@@H](C)CC)[C@@H](C)CC)[C@@H](C)CC)C(=O)N[C@@H](C(C)C)C(=O)NCC(=O)N[C@@H](CC(=O)O)C(=O)N1)C(=O)N[C@@H](CC(=O)O)C(=O)N[C@@H](CCCNC(=N)N)C(=O)N[C@@H](CO)C(=O)N[C@H](C(=O)N[C@@H](Cc1c[nH]c2ccccc12)C(N)=O)[C@@H](C)CC [BID-DM]
107 ± 29 | 0.003 | 31000 | 620 ± 20 | 1600 ± 120 | CCCC[C@H](NC(=O)[C@@H]1CCC/C=C\CCC[C@H](NC(=O)[C@H](C)NC(=O)[C@H](CC(C)C)NC(=O)[C@H](Cc2c[nH]cn2)NC(=O)[C@H](CCCNC(=N)N)NC(=O)[C@H](C)NC(=O)[C@@H](NC(=O)[C@H](CC(N)=O)NC(=O)[C@H](CCCNC(=N)N)NC(=O)[C@@H](NC(=O)[C@@H](NC(=O)[C@H](CC(=O)O)NC(=O)[C@H](CCC(=O)O)NC(C)=O)[C@@H](C)CC)[C@@H](C)CC)[C@@H](C)CC)C(=O)N[C@@H](C(C)C)C(=O)NCC(=O)N[C@@H](CC(=O)O)C(=O)N1)C(=O)N[C@@H](CC(=O)O)C(=O)N[C@@H](CCCNC(=N)N)C(=O)N[C@@H](CO)C(=O)N[C@H](C(=O)N[C@@H](Cc1c[nH]c2ccccc12)C(N)=O)[C@@H](C)CC [BID-MM]
